Values quoted from earlier work, collected in patent US20260042735A1, “BENZYLTRYPTAMINE COMPOUNDS” (priority 2021, published 2026).

What was measured:
dopamine receptors = details: cited from earlier work
5-HT6 = 5-HT6 (Homo sapiens (Human), UniProt P50406); details: cited from earlier work
5-HT1B = 5-HT1B (Homo sapiens (Human), UniProt P28222); details: cited from earlier work
5-HT7 = 5-HT7 (Homo sapiens (Human), UniProt P34969); details: cited from earlier work
5-HT1D = 5-HT1D (Homo sapiens (Human), UniProt P28221); details: cited from earlier work
5-HT5 = 5-HT5 (Homo sapiens (Human), UniProt P47898); details: cited from earlier work
5-HT3 = 5-HT3 (Homo sapiens (Human), UniProt P46098); details: read-out: Ki 5-HT3; cited from earlier work
SERT = SERT (Homo sapiens (Human), UniProt P31645); details: cited from earlier work
mouse OCD model = details: cited from earlier work
5HT2C receptor = 5HT2C receptor (Homo sapiens, UniProt P28335); details: cited from earlier work
human 5-HT2A receptor = human 5-HT2A receptor (Homo sapiens (Human), UniProt P28223); details: cited from earlier work
mouse head twitch = details: much lower potency relative to psilocin; cited from earlier work
5HT2B receptor [1] = target: T1, 5HT2B receptor (Homo sapiens, UniProt P41595); details: cited from earlier work
5HT2B receptor [2] = target: T1, 5HT2B receptor; details: cited from earlier work; remark: listed apart in the source

T1 sequence (P41595 whole entry, looked up): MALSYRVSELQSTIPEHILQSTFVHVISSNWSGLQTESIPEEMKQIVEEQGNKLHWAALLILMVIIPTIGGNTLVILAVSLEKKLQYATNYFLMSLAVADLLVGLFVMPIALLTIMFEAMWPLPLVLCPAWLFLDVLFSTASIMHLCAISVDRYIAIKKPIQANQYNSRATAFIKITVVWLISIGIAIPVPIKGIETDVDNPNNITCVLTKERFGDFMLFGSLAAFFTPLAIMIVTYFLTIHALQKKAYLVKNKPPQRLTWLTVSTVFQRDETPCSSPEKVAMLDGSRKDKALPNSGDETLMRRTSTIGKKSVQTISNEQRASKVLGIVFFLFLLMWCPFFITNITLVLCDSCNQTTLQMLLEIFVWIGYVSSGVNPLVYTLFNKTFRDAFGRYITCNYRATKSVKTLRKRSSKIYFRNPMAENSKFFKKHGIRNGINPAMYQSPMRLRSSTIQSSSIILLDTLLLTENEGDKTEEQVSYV
Sequence of 5HT2C receptor (P28335 33-458 limits assumed): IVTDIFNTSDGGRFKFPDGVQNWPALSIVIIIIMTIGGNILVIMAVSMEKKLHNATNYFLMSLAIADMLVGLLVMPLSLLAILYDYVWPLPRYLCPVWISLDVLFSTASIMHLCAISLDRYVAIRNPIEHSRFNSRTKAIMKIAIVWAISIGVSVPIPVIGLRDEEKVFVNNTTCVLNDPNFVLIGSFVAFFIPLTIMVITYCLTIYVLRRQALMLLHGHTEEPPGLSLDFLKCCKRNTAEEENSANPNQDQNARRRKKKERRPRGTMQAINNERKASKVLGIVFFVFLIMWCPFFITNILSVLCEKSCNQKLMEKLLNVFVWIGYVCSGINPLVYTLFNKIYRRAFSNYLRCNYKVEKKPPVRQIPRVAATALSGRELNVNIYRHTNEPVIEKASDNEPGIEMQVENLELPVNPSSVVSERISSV
Sequence of 5-HT1D (P28221 whole entry, looked up, species assumed): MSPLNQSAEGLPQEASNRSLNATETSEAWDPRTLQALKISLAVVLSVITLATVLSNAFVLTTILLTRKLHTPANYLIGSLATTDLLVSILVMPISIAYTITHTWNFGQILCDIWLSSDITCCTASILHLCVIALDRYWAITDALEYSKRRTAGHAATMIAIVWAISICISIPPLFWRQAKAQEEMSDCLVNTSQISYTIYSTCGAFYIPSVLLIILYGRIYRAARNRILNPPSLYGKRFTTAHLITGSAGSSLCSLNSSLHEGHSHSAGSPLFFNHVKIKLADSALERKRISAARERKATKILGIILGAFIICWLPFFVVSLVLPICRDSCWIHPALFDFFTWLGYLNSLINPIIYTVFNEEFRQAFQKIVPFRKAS
Sequence of 5-HT3 (P46098 whole entry, looked up, species assumed): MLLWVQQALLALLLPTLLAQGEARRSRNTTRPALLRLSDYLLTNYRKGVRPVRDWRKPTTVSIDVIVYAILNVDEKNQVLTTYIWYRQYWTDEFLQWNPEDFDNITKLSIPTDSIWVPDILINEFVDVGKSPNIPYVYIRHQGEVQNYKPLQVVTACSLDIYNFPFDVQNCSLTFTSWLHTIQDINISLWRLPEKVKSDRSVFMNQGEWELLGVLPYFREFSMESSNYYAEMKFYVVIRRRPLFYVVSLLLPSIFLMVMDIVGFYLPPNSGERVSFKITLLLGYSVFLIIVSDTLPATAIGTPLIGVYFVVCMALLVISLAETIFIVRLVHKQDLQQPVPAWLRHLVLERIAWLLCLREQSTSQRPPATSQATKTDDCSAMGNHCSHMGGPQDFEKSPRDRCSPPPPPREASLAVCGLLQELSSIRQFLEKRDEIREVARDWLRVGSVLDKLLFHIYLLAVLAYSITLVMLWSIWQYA
Sequence of 5-HT6 (P50406 whole entry, looked up, species assumed): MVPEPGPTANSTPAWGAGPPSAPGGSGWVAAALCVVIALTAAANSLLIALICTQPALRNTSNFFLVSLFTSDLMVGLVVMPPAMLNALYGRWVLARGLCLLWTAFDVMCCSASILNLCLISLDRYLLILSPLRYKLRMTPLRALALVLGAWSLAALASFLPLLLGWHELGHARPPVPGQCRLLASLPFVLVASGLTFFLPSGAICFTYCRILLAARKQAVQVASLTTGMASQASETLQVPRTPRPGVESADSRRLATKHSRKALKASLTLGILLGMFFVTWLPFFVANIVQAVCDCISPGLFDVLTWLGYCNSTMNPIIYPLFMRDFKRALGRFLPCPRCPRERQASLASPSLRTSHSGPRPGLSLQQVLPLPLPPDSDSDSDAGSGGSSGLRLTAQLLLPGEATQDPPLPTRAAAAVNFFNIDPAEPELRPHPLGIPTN
Sequence of 5-HT5 (P47898 whole entry, looked up, species assumed): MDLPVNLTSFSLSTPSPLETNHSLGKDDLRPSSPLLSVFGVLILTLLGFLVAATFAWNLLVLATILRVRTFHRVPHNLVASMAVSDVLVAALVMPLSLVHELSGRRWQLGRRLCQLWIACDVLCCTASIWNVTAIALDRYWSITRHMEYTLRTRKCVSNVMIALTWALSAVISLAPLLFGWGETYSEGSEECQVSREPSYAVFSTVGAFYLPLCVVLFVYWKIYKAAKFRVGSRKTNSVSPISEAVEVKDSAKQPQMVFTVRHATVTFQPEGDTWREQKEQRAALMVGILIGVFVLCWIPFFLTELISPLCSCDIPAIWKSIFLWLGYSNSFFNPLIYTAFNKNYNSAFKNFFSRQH
Sequence of 5-HT1B (P28222 whole entry, looked up, species assumed): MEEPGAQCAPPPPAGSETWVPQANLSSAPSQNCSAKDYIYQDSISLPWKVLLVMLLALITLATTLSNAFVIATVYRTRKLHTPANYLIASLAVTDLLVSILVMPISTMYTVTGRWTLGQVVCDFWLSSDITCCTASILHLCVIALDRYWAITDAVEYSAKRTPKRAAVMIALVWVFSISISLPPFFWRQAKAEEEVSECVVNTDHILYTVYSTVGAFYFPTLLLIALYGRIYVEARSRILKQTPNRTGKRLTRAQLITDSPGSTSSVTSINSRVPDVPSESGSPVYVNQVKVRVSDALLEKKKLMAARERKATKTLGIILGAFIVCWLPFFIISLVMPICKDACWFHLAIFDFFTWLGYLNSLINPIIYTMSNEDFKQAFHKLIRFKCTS
Sequence of 5-HT7 (P34969 whole entry, looked up, species assumed): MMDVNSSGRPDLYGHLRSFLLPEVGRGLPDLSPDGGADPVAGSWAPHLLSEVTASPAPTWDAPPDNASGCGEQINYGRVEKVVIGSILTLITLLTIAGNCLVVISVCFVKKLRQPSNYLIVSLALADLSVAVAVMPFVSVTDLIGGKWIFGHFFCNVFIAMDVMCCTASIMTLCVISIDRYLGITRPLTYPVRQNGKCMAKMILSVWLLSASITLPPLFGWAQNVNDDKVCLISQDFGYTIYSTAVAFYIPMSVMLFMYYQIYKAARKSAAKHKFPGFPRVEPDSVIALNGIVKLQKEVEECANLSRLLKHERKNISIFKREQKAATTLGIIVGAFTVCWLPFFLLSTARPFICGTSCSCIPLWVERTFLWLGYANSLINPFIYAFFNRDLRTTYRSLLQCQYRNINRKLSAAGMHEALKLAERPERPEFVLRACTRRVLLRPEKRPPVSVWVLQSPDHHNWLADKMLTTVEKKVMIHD

Structure (SMILES) | Effect on dopamine receptors (dopamine receptors) | Ki (5-HT6) | Ki (5-HT1B) | Ki (5-HT7) | Ki (5-HT1D) | Ki (5-HT5) | Ki (5-HT3) | Ki (SERT) | Efficacy in mouse OCD model (mouse OCD model) | EC50 (5HT2C receptor; phosphoinositol hydrolysis, read-out: Agonist potency at human 5-HT2C receptor) | Functional efficacy response vs serotonin, 5-HT2C (5HT2C receptor; serotonin set at 100%) | Functional efficacy response vs serotonin, 5-HT2A (human 5-HT2A receptor) | EC50 (human 5-HT2A receptor; phosphoinositol hydrolysis, read-out: Agonist potency at human 5-HT2A receptor) | Efficacy in mouse head twitch assay (mouse head twitch) | Antagonist potency at 5-HT2B receptors (5HT2B receptor [1]) | Agonist activity at 5-HT2B receptors (5HT2B receptor [2])
CN(C)CCc1c[nH]c2cccc(O)c12 [Psilocin, psilocin] | no significant effect | 57 nM | 219 nM | 3.5 nM | 36 nM | 84 nM | > 10000 nM | 3800 nM | – | – | – | – | – | – | – | –
CN(C)CCc1cn(C)c2cccc(O)c12 [compound 1] | – | – | – | – | – | – | – | – | efficacy in a mouse OCD model demonstrated | 12 nM | ca. 45% | ca. 30% | 633 nM | efficacious | 38 nM | inactive
